Measured values from patent US5955076A, “Immunoactive peptides and antibodies and their use in anti-allergy treatment” (Peptide Therapeutics Limited, priority 1989, dated 1999).
Where no end group is shown, it is not given here.

Assays:
[1] = test system: rats experimentally sensitised to ovalbumin; assay: Serum histamine after systemic ovalbumin challenge of immunised, experimentally sensitised rats; assay type: in vivo, rat
[2] = test system: rat peritoneal mast cells; set-up: dose or concentration left out as unconfirmed; settings: concentration range; in words; cited from earlier work

Substance | Histamine release ([1]; A = immunised before experimental sensitisation, Control A 300) | Histamine release ([1]; B = immunised after experimental sensitisation, Control B 950) | non-cytolytic release of histamine from rat peritoneal mast cells in vitro [2]
Lys-Tyr-Asn-Gly-Ser-Asn-Gln-Arg-Phe-Phe-Ile-Phe-NH2 (KYNGSNQRFFIF-NH2) [F49, histamine releasing rat ε-chain dodecapeptide, used as immunogen] | 0 ng/mL | 50 ng/mL | –
KTKGSGFFVF [decapeptide (sequence 497-506)] | – | – | dose-dependent histamine release
RKTKGSGFF [nonapeptide (sequence 496-504)] | – | – | dose-dependent histamine release
KTKGSGFF [octapeptide (sequence 497-504)] | – | – | dose-dependent histamine release
